Reference: the NIST ThermoML archive (doi:10.1016/j.jct.2006.03.021)
Numbers after ± are expanded uncertainties.

Assay: molar heat capacity at constant pressure
Details: 101.33 kPa, Crystal, Vacuum adiabatic calorimetry

O.O.OC[C@H]1O[C@H](O[C@H]2O[C@H](CO)[C@@H](O)[C@H](O)[C@H]2O)[C@H](O)[C@@H](O)[C@@H]1O [D-(+)-trehalose dihydrate]
Details | molar heat capacity at constant pressure [J/K/mol]
13.55 K | 6.385 ± 0.061
14.6 K | 7.838 ± 0.071
15 K | 8.51 ± 0.08
15.59 K | 9.345 ± 0.082
16.61 K | 10.96 ± 0.092
17.67 K | 12.73 ± 0.1
18.75 K | 14.64 ± 0.12
19.81 K | 16.57 ± 0.13
20 K | 16.78 ± 0.13
20.85 K | 18.51 ± 0.14
21.9 K | 20.53 ± 0.15
22.93 K | 22.57 ± 0.17
23.97 K | 24.62 ± 0.18
25.02 K | 26.77 ± 0.19
26.11 K | 29 ± 0.2
27.24 K | 31.35 ± 0.21
28.42 K | 33.79 ± 0.23
29.57 K | 36.22 ± 0.24
30 K | 37.06 ± 0.24
30.71 K | 38.61 ± 0.25
31.92 K | 41.15 ± 0.27
33.18 K | 43.81 ± 0.28
34.5 K | 46.58 ± 0.3
35.82 K | 49.36 ± 0.32
37.15 K | 52.14 ± 0.33
38.46 K | 54.9 ± 0.35
39.78 K | 57.62 ± 0.36
40 K | 58.13 ± 0.37
41.15 K | 60.45 ± 0.38
42.54 K | 63.33 ± 0.4
43.91 K | 66.14 ± 0.42
45.27 K | 68.9 ± 0.43
46.63 K | 71.67 ± 0.45
48.02 K | 74.49 ± 0.47
49.43 K | 77.32 ± 0.49
50 K | 78.42 ± 0.49
50.88 K | 80.24 ± 0.5
52.39 K | 83.22 ± 0.52
53.93 K | 86.27 ± 0.54
55.51 K | 89.39 ± 0.56
56.3 K | 90.95 ± 0.57
57.99 K | 94.25 ± 0.59
59.66 K | 97.53 ± 0.61
60 K | 98.14 ± 0.61
61.39 K | 100.85 ± 0.63
63.18 K | 104.27 ± 0.65
64.99 K | 107.74 ± 0.67
66.83 K | 111.22 ± 0.69
68.66 K | 114.67 ± 0.71
70 K | 117.19 ± 0.73
70.49 K | 118.11 ± 0.74
72.33 K | 121.52 ± 0.76
74.17 K | 124.94 ± 0.78
76.04 K | 128.4 ± 0.8
77.89 K | 131.81 ± 0.82
79.75 K | 135.21 ± 0.84
80 K | 135.65 ± 0.84
81.63 K | 138.61 ± 0.86
83.51 K | 142.01 ± 0.88
85.4 K | 145.39 ± 0.9
87.31 K | 148.81 ± 0.92
89.22 K | 152.17 ± 0.95
90 K | 153.54 ± 0.96
91.14 K | 155.56 ± 0.97
93.09 K | 158.95 ± 0.99
95.06 K | 162.41 ± 1
97.04 K | 165.84 ± 1
98.99 K | 169.18 ± 1.1
100 K | 170.91 ± 0.43
100.9 K | 172.45 ± 0.44
102.78 K | 175.65 ± 0.44
104.63 K | 178.78 ± 0.45
106.45 K | 181.89 ± 0.45
108.25 K | 184.88 ± 0.46
110 K | 187.82 ± 0.47
110.03 K | 187.85 ± 0.47
111.78 K | 190.76 ± 0.47
113.51 K | 193.65 ± 0.48
115.22 K | 196.52 ± 0.48
116.9 K | 199.3 ± 0.49
118.57 K | 202 ± 0.5
120 K | 204.35 ± 0.5
120.3 K | 204.92 ± 0.5
122.1 K | 207.75 ± 0.51
123.94 K | 210.99 ± 0.51
125.83 K | 213.81 ± 0.52
127.75 K | 216.99 ± 0.53
129.72 K | 220.18 ± 0.53
130 K | 220.6 ± 0.53
131.71 K | 223.29 ± 0.54
133.7 K | 226.52 ± 0.55
135.72 K | 229.81 ± 0.55
137.73 K | 232.95 ± 0.56
139.73 K | 236.18 ± 0.57
140 K | 236.57 ± 0.57
141.73 K | 239.27 ± 0.57
143.74 K | 242.56 ± 0.58
145.72 K | 245.6 ± 0.58
147.72 K | 248.78 ± 0.59
149.71 K | 251.89 ± 0.6
150 K | 252.32 ± 0.6
151.71 K | 254.95 ± 0.6
153.75 K | 258.14 ± 0.61
155.79 K | 261.37 ± 0.62
157.84 K | 264.6 ± 0.62
159.89 K | 267.82 ± 0.63
160 K | 267.93 ± 0.63
161.93 K | 270.95 ± 0.64
163.96 K | 274.13 ± 0.64
165.96 K | 277.24 ± 0.65
167.95 K | 280.33 ± 0.66
169.92 K | 283.36 ± 0.66
170 K | 283.46 ± 0.66
171.88 K | 286.43 ± 0.67
173.83 K | 289.42 ± 0.68
175.76 K | 292.43 ± 0.68
177.63 K | 295.3 ± 0.69
179.56 K | 298.22 ± 0.69
180 K | 299 ± 0.7
181.49 K | 301.33 ± 0.7
183.41 K | 304.3 ± 0.71
185.35 K | 307.28 ± 0.71
187.29 K | 310.3 ± 0.72
189.22 K | 313.27 ± 0.72
190 K | 314.53 ± 0.73
191.14 K | 316.25 ± 0.73
193.07 K | 319.27 ± 0.74
195.02 K | 322.27 ± 0.74
196.95 K | 325.32 ± 0.75
198.87 K | 328.28 ± 0.76
200 K | 330.09 ± 0.76
200.8 K | 331.37 ± 0.76
202.74 K | 334.35 ± 0.77
204.67 K | 337.37 ± 0.78
206.6 K | 340.29 ± 0.78
208.53 K | 343.33 ± 0.79
210 K | 345.69 ± 0.79
210.48 K | 346.48 ± 0.79
212.42 K | 349.61 ± 0.8
214.34 K | 352.52 ± 0.81
216.28 K | 355.42 ± 0.81
220 K | 361.36 ± 0.83
220.18 K | 361.71 ± 0.83
222.12 K | 364.67 ± 0.83
224.04 K | 367.73 ± 0.84
225.95 K | 370.88 ± 0.85
227.85 K | 373.65 ± 0.85
229.74 K | 376.66 ± 0.86
230 K | 377.12 ± 0.86
231.62 K | 379.52 ± 0.86
233.49 K | 382.68 ± 0.87
235.35 K | 385.55 ± 0.88
237.2 K | 388.42 ± 0.88
239.04 K | 391.36 ± 0.89
240 K | 392.98 ± 0.89
240.87 K | 394.34 ± 0.89
242.69 K | 397.3 ± 0.9
244.52 K | 400.18 ± 0.91
246.37 K | 403.04 ± 0.91
248.24 K | 406.16 ± 0.92
250 K | 408.95 ± 0.92
250.12 K | 409.17 ± 0.93
252 K | 412.27 ± 0.93
253.8 K | 415.1 ± 0.94
255.61 K | 417.77 ± 0.94
257.43 K | 420.98 ± 0.95
259.28 K | 423.94 ± 0.96
260 K | 425.06 ± 0.96
261.14 K | 426.99 ± 0.96
263.01 K | 430.01 ± 0.97
264.88 K | 433.05 ± 0.98
266.76 K | 435.05 ± 0.98
268.64 K | 439.07 ± 0.99
270 K | 441.31 ± 0.99
270.53 K | 442.21 ± 0.99
272.4 K | 445.33 ± 1
274.28 K | 448.34 ± 1
276.17 K | 451.18 ± 1
278.06 K | 454.48 ± 1
279.95 K | 457.55 ± 1
280 K | 457.7 ± 1
281.85 K | 460.72 ± 1
283.75 K | 463.95 ± 1
285.66 K | 466.99 ± 1.1
287.57 K | 470.12 ± 1.1
289.49 K | 473.55 ± 1.1
290 K | 474.26 ± 1.1
291.41 K | 476.85 ± 1.1
293.32 K | 479.88 ± 1.1
295.23 K | 482.95 ± 1.1
297.16 K | 486.02 ± 1.1
298.15 K | 487.87 ± 1.1
299.07 K | 489.45 ± 1.1
300 K | 490.98 ± 1.1
300.98 K | 492.63 ± 1.1
